In article PMC7768756, “BAM1/2 receptor kinase signaling drives CLE peptide-mediated formative cell divisions in Arabidopsis roots” (Proceedings of the National Academy of Sciences of the …, 2020):
Where two headings read alike, the source gives them in different places. Non-standard residues stand in square brackets, D forms with d. Residues, ends and D or L forms follow the SMILES beside them. No end group written: not given here. Hyp = O=C(O)[C@@H]1C[C@@H](O)CN1

How the values were obtained:
[1] = biological target: T1, BAM1 extracellular domain (Arabidopsis thaliana, UniProt O49545); experiment: Grating-coupled interferometry (GCI) binding kinetics of CLE peptides versus the BAM1 ectodomain; details: for koff: pH 5, read-out: koff, dissociation rate constant; for kon: pH 5, read-out: kon, association rate constant
T1 construct: Drosophila BiP secretion signal peptide (N); StrepII (C, cleaved yes); 10xHis (C, cleaved yes); made in house; host or cells: Trichoplusia ni (strain Tnao38) insect cells, baculovirus (modified pFastBac)
T1 sequence (O49545 20-637): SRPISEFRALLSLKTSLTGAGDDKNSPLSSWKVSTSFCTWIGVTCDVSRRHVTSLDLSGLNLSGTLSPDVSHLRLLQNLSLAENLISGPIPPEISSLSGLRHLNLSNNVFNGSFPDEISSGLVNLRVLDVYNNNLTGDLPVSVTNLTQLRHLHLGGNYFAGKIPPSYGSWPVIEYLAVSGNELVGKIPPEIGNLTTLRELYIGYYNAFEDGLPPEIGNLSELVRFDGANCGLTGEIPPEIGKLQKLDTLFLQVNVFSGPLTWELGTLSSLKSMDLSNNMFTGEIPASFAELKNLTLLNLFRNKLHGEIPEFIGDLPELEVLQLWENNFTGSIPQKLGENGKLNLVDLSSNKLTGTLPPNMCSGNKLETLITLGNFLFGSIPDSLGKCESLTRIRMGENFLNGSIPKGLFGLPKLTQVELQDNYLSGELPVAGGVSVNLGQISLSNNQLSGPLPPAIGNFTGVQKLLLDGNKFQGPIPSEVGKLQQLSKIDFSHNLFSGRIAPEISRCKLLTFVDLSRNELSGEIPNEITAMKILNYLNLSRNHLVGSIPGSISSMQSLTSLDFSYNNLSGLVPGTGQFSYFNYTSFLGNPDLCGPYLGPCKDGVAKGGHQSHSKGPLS
From the text: The coding sequence of BAM1 (residues 20 to 637) was synthesized (GeneArt) with codons optimized for expression in Trichoplusia ni and cloned in a modified pFastBac vector (Geneva Biotech), harboring the Drosophila BiP secretion signal peptide and a TEV (tobacco etch virus protease) cleavable C-terminal StrepII, 10× His tag and a noncleavable Avi-tag ([41], [42]). T. ni (strain Tnao38) ([43]) cells were infected with a multiplicity of infection (MOI) of 1 at a density of 2 × 10^6 cells mL^−1 and incubated 26 h at 28 °C and 48 h at 22 °C. The secreted protein was purified from the supernatant by Ni^2+ (HisTrap Excel; GE Healthcare; equilibrated in 50 mM KPi pH 7.6, 250 mM NaCl, 1 mM 2-mercaptoethanol) and StrepII (Strep-Tactin XT Superflow high affinity chromatography: IBA; equilibrated in 20 mM Tris pH 8.0, 250 mM NaCl, 1 mM ethylenediaminetetraacetic acid) affinity chromatography. The tag was cleaved with His-tagged TEV protease at 4 °C overnight and removed by Ni^2+ affinity chromatography. Proteins were then further purified by size-exclusion chromatography on a Superdex 200 increase 10/300 GL column (GE Healthcare), equilibrated in 20 mM sodium citrate pH 5.0, 250 mM NaCl.
BAM1 protein (20 µM) was biotinylated with biotin ligase BirA (2 µM) ([42]) for 1 h at 25 °C, in a volume of 200 µL; 25 mM Tris pH 8, 150 mM NaCl, 5 mM MgCl2, 2 mM 2-mercaptoethanol, 0.15 mM biotin, 2 mM ATP, and followed by size-exclusion chromatography to purify the biotinylated protein.
Grating-coupled interferometry (GCI) experiments were derived by the Creoptix WAVE system (Creoptix). All experiments were performed on 4PCP WAVE chips (quasiplanar polycarboxylate surface; Creoptix). Borate buffer (100 mM sodium borate pH 9.0, 1 M NaCl; Xantec) was used for chip conditioning and streptavidin (Sigma) was immobilized on the chip surface with standard amine coupling; 7 min activation [1:1 mix of 400 mM N-(3-dimethylaminopropyl)-N′-ethylcarbodiimide hydrochloride and 100 mM N-hydroxysuccinimide] (Xantec), followed by injection of streptavidin (30 µg mL^−1) in 10 mM sodium acetate pH 5.0 (Sigma) until the desired density was reached, passivation of the surface (0.5% bovine serum albumin [Roche] in 10 mM sodium acetate pH 5.0) and final quenching with 1 M ethanolamine pH 8.0 for 7 min (Xantec). Then, biotinylated BAM1 (80 µg mL^−1) was captured on the chip surface. All kinetic analyses were performed at 25 °C with a 1:2 dilution series from 100 nM for CLE9 or 10 µM for the other peptides in 20 mM citrate pH 5.0, 250 mM NaCl, 0.01% Tween 20. Blank injections were used for double referencing and a dimethyl sulfoxide (DMSO) calibration curve for bulk correction. Analysis and correction of the obtained data were performed using the Creoptix WAVE control software (correction applied: X and Y offset; DMSO calibration; double referencing). Mass transport binding models with bulk correction were used to fit all experiments.

[2] = tested on: CYCD6;1 expression; experiment: CYCLIND6;1p::GFP reporter expression in roots after exogenous CLE peptide treatment; format: in vivo, Arabidopsis; details: Col-0 roots; 0.1 μM CLEp for 48 h from 3 dag, imaged 5 dag
Method: Seeds were surface sterilized with 70% ethanol and 0.1% Triton X-100 for 10 min, rinsed three times with 70% ethanol, and plated onto 0.5× Murashige and Skoog (MS) (pH 5.7) (Research Products International) with 8 g/L Phytoagar (Research Products International) and stratified at 4 °C for 2 d. Following stratification, seeds were germinated in a continuous light growth chamber at 22 °C to 24 °C. For peptide-treated plants, sterilized seeds were stratified and germinated on 0.5× MS plates. At 3 d after germination (dag), seedlings were transferred to either 0.5× MS plates or 0.5× MS plates supplemented with 0.1 μM CLEp for 48 h. Roots were imaged 5 dag as described in the figure legends. All synthetic peptides (>90% purity, Biomatik) (SI Appendix, Table S1) were dissolved in sterile dH2O as recommended. For treatment with dexamethasone (Dex; Sigma), seedlings were stratified and germinated on 0.5× MS plates supplemented with 10 μM Dex for 3 d before imaging.
Laser scanning confocal microscopy of roots was performed using either a C-Apochromat 40×/1.20 W Korr objective on a Zeiss laser scanning microscopy (LSM) 710 or an EC Plan-Neofluar 40×/1.30 oil differential interference contrast (DIC) M27 objective on a Zeiss LSM 880. Roots were examined by staining with 10 μM propidium iodide (PI) (Sigma-Aldrich). For images in Figs. 2B and 4 A and C and SI Appendix, Figs. S1D and S2B, seedlings were fixed in 4% paraformaldehyde in phosphate-buffered saline (PBS) for 45 min, rinsed in PBS, and cleared in ClearSee solution ([38]) overnight. Fixed seedlings were incubated in 0.2% Calcofluor white (Sigma-Aldrich) for 30 min and transferred to fresh ClearSee solution 2 to 24 h before imaging. Laser line excitations and emissions are as follows: Calcofluor white (405 nm; 410 to 551 nm), GFP (488 nm; 492 to 551 nm), YFP (514 nm; 519 to 564 nm), mCherry (561 nm; 566 to 606 nm), and PI (561 nm; 566 to 682 nm). Histological sectioning of Col-0 and bam1/2/3 roots 6 dag were prepared as previously described ([39]).

[3] = biological target: T2, BAM1 extracellular domain (BARELY ANY MERISTEM1 receptor kinase, residues 20 to 637) (Arabidopsis, UniProt O49545 20-637, biotin (by biotin ligase BirA)); experiment: grating-coupled interferometry (GCI); biotinylated BAM1 captured on streptavidin on a 4PCP WAVE chip (Creoptix WAVE); peptides as analyte, 1:2 dilution series from 10 µM; 25 °C; 20 mM citrate pH 5.0, 250 mM NaCl, 0.01% Tween 20; one-to-one binding model with mass transport; details: both partners purified
T2 construct: synthetic gene, codon-optimised for Trichoplusia ni; Expressed behind the Drosophila BiP secretion signal peptide in a modified pFastBac vector; the StrepII and 10x His tags were removed with TEV protease, the Avi-tag is not cleavable and was used to capture the protein on streptavidin; also called BAM1 ectodomain; biotinylated BAM1; source: Trichoplusia ni (strain Tnao38) cells, secreted, …
T2 sequence (looked up): T1 sequence (O49545 20-637)

[4] = biological target: T3, BAM1 extracellular domain (BARELY ANY MERISTEM1 receptor kinase, residues 20 to 637) (Arabidopsis, UniProt O49545 20-637, biotin (by biotin ligase BirA))
T3 chain: T1 sequence (O49545 20-637)

Work on CC(C)C[C@H](NC(=O)[C@@H](N)CCCNC(=N)N)C(=O)N[C@H](C(=O)N1C[C@H](O)C[C@H]1C(=O)N[C@@H](CO)C(=O)NCC(=O)N1C[C@H](O)C[C@H]1C(=O)N[C@@H](CC(N)=O)C(=O)N1CCC[C@H]1C(=O)N[C@@H](CC(C)C)C(=O)N[C@@H](Cc1c[nH]cn1)C(=O)N[C@@H](CC(N)=O)C(=O)O)C(C)C [CLE9, reference compound] (H-RLV[Hyp]SG[Hyp]NPLHN-OH; N-terminus and C-terminus assumed) yielded a koff [1] of 0.024 s⁻¹ and a kon [1] of 3.76e+07 M⁻¹ s⁻¹.

For “RLSPGGPDPQHH [CLE2p, synthesized root expressed CLE dodecapeptide, locus At4g18510]”, the “Upregulation of CYCD6 observed? (CYCLIND6;1p::GFP response)” value (“Upregulation of CYCD6 observed?” for short) [2] was “No”.

For “RLSPGGPDPRHH [CLE1p, synthesized root expressed CLE dodecapeptide, locus At1g73165]”, the “Upregulation of CYCD6 observed?” value [2] was “No”.

RLVHTGPNPLHN [CLE16p] was tested, and the koff [1] was 1.05 s⁻¹ and the kon [1] was 1.51e+08 M⁻¹ s⁻¹.

RLVPSGPNPLHH [CLE13p] gave a koff [1] of 0.603 s⁻¹ and a kon [1] of 5.88e+07 M⁻¹ s⁻¹.

“RRVPSGPNPLHH [CLE12p, synthesized root expressed CLE dodecapeptide, locus At1g68795]” was tested, and the “Upregulation of CYCD6 observed?” value [2] was “Yes”.

RTVPSGPDPLHH [CLV3, reference compound] was tested, and the koff [1] was 0.549 s⁻¹ and the kon [1] was 38200 M⁻¹ s⁻¹.

B1: CLE13 dodecapeptide (CLE13p) (peptide, UniProt Q6NMF0 96-107, looked up)
peptide: RLVPSGPNPLHH
modifications: ends and bridges not checked
notes: CLE13p, the active dodecapeptide released from the CLE13 propeptide, Arabidopsis; source: synthetic peptide (>90% purity, Biomatik)
With B1 the Kd [3] was 10 nM.

For RTVPSGPDPLHH [CLV3], the Kd [4] was 14000 nM.

B2: CLE16 dodecapeptide (CLE16p) (peptide, UniProt Q8S8M2 92-103, looked up)
peptide: RLVHTGPNPLHN
modifications: ends and bridges not checked
notes: CLE16p, the active dodecapeptide released from the CLE16 propeptide, Arabidopsis; source: synthetic peptide (>90% purity, Biomatik)
In the case of B2, the Kd [3] is reported as 6.9 nM.

For RLVPSGPNPLHN [CLE9], the Kd [4] was 0.6 nM.
